Our source for the IC50 and inhibition values is US20260258030A1, “USE AND TREATMENT METHOD OF AZETIDINE DERIVATIVE” (SICHUAN KELUN-BIOTECH BIOPHARMACEUTICAL CO., LTD., priority 2022, published 2026).

Test [1] has as its system STAT3 phosphorylation induced by cytokine IL-6 stimulation in CD4+ T cells. Briefly: Inhibition of STAT3 phosphorylation induced by IL-6 in CD4+ T cells in human whole blood (flow cytometry). In kind it is cell-based. The source says: (§1) The inhibitory effect of Compound 8 on STAT5 phosphorylation induced by cytokine IL-2 stimulation in CD4+ T cells in human whole blood, as well as on STAT3 phosphorylation induced by cytokine IL-6 stimulation in CD4+ T cells in human whole blood, was detected using flow cytometry.

The target of test [2] is p70S6K (p70 ribosomal protein S6 kinase) (Homo sapiens, UniProt P23443). The experiment in a line: In vitro kinase inhibition, enzymatic assay, p70S6K. In kind it is biochemical. The settings on record: at a concentration of 200 nM; read-out: inhibition rate on p70S6K. The source says:
(§2) An in vitro enzymatic assay system was used to test the inhibitory effect of Compound 8 on certain kinase targets.

Test [3] addresses PKA (protein kinase A) (Homo sapiens, UniProt P17612). Briefly: In vitro kinase inhibition, enzymatic assay, PKA. Format: biochemical. To be noted: at a concentration of 200 nM; read-out: inhibition rate on PKA.
Text: as §2

For test [4], the system named is STAT5 phosphorylation induced by cytokine IL-2 stimulation in CD4+ T cells. Briefly: Inhibition of STAT5 phosphorylation induced by IL-2 in CD4+ T cells in human whole blood (flow cytometry). Format: cell-based.
Text: as §1

p70S6K (p70 ribosomal protein S6 kinase), sequence (P23443 whole entry): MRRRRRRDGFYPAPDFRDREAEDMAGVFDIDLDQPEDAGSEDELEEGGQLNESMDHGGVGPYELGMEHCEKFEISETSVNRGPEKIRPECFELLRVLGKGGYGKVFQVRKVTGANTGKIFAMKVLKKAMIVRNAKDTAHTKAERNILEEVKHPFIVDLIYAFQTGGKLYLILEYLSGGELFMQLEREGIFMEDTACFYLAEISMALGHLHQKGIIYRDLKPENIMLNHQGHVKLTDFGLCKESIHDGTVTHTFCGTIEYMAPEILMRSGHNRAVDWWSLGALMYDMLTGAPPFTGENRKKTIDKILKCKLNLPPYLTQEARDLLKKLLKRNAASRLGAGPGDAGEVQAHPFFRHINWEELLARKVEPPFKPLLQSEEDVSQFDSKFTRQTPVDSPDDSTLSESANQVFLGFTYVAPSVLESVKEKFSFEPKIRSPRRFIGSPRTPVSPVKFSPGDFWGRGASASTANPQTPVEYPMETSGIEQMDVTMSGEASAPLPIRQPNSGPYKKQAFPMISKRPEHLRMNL

On to `CCS(=O)(=O)N1CC(CC#N)(n2cc(-c3ccnc4[nH]ccc34)cn2)C1` [Compound 8], for which the IC50 in test [1] was found to be 1510 ± 60 nM; in test [4], 460 ± 30 nM. Also, the inhibition at 0.2 µM in test [2] stood at 67%; in test [3], 75%.
